The structures appear in SMILES notation.

What is called IC50 is the concentration that gives 50% inhibition.

In this assay the target is human HSV DNA polymerase UL30 (Human herpesvirus 1 (strain 17) (HHV-1) (Human herpes simplex virus 1), UniProt P04293). Put plainly: biochemical. The conditions noted are these: 625 pM HSV polymerase, 20 minutes at room temperature; read-out: HSV-polymerase Biochemical IC50.
Consider `CNCCOCC(C)(C)S(=O)(=O)C1(CN2CCc3c(C(=O)NCc4ccc(C#N)cc4)nn(C)c3C2=O)CC1` [Example 101, N-(4-Cyanobenzyl)-1-methyl-6-((1-((2-methyl-1-(2-(methylamino)ethoxy)propan-2-yl)sulfonyl)cyclopropyl)methyl)-7-oxo-4,5,6,7-tetrahydro-1H-pyrazolo[3,4-c]pyridine-3-carboxamide], for which the IC50 was found to be 32 nM.

Turning to `Cn1nc(C(=O)NCc2ccc(C#N)cc2)c2c1C(=O)N(CC1(S(=O)(=O)C(C)(C)COC3CNC3)CC1)CC2` [Example 102, 6-((1-((1-(Azetidin-3-yloxy)-2-methylpropan-2-yl)sulfonyl)cyclopropyl)methyl)-N-(4-cyanobenzyl)-1-methyl-7-oxo-4,5,6,7-tetrahydro-1H-pyrazolo[3,4-c]pyridine-3-carboxamide], the IC50 is 42 nM. In the case of `Cn1nc(C(=O)NCc2ccc(C#N)cc2)c2c1C(=O)N(CC1(S(=O)(=O)C(C)(C)COCC(C)(C)N)CC1)CC2` [Example 103, 6-((1-((1-(2-Amino-2-methylpropoxy)-2-methylpropan-2-yl)sulfonyl)cyclopropyl)methyl)-N-(4-cyanobenzyl)-1-methyl-7-oxo-4,5,6,7-tetrahydro-1H-pyrazolo[3,4-c]pyridine-3-carboxamide] it was 117 nM; in that of `CN(C)CCOCC(C)(C)S(=O)(=O)C1(CN2CCc3c(C(=O)NCc4ccc(C#N)cc4)nn(C)c3C2=O)CC1` [Example 104, N-(4-Cyanobenzyl)-6-((1-((1-(2-(dimethylamino)ethoxy)-2-methylpropan-2-yl)sulfonyl)cyclopropyl)methyl)-1-methyl-7-oxo-4,5,6,7-tetrahydro-1H-pyrazolo[3,4-c]pyridine-3-carboxamide], 108 nM. With `CNC(=O)C(C)(C)S(=O)(=O)C1(CN2CCc3c(C(=O)NCc4ccc(Cl)cc4)nn(C)c3C2=O)CC1` [Example 110, N-(4-Chlorobenzyl)-1-methyl-6-((1-((2-methyl-1-(methylamino)-1-oxopropan-2-yl)sulfonyl)cyclopropyl)methyl)-7-oxo-4,5,6,7-tetrahydro-1H-pyrazolo[3,4-c]pyridine-3-carboxamide], the concentration for half-maximal inhibition (IC50) turned out to be 166 nM. As for `Cn1nc(C(=O)NCc2ccc(C#N)cc2)c2c1C(=O)N(CC1(S(=O)(=O)C3(CCO)CC3)CC1)CC2` [Example 117, N-(4-Cyanobenzyl)-6-((1-((1-(2-hydroxyethyl)cyclopropyl)sulfonyl)cyclopropyl)methyl)-1-methyl-7-oxo-4,5,6,7-tetrahydro-1H-pyrazolo[3,4-c]pyridine-3-carboxamide], the IC50 was found to be 59 nM. Regarding `Cn1nc(C(=O)NCc2ccc(C#N)cc2)c2c1C(=O)N(CC1(S(=O)(=O)CC(C)(C)O)CC1)CC2` [Example 118, N-(4-Cyanobenzyl)-6-((1-((2-hydroxy-2-methylpropyl)sulfonyl)cyclopropyl)methyl)-1-methyl-7-oxo-4,5,6,7-tetrahydro-1H-pyrazolo[3,4-c]pyridine-3-carboxamide], the half-maximal inhibitory concentration (IC50) amounted to 412 nM.

For `Cn1nc(C(=O)NCc2ccc(Cl)cc2)c2c1C(=O)N(CC1(S(N)(=O)=O)CC1)CC2` [Example 121, N-(4-Chlorobenzyl)-1-methyl-7-oxo-6-((1-sulfamoylcyclopropyl)methyl)-4,5,6,7-tetrahydro-1H-pyrazolo[3,4-c]pyridine-3-carboxamide], the IC50 was 671 nM.

Take `CN(C)/C=N/S(=O)(=O)C1(CN2CCc3c(C(=O)NCc4ccc(Cl)cc4)nn(C)c3C2=O)CC1` [Example 122, (E)-N-(4-Chlorobenzyl)-6-((1-(N-((dimethylamino)methylene)sulfamoyl)cyclopropyl)methyl)-1-methyl-7-oxo-4,5,6,7-tetrahydro-1H-pyrazolo[3,4-c]pyridine-3-carboxamide]: the IC50 stood at 324 nM.

With `Cn1nc(C(=O)NCc2ccc(C#N)cc2)c2c1C(=O)N(CC1(S(=O)(=O)N3CCOCC3)CC1)CC2` [Example 124, N-(4-Cyanobenzyl)-1-methyl-6-((1-(morpholinosulfonyl)cyclopropyl)methyl)-7-oxo-4,5,6,7-tetrahydro-1H-pyrazolo[3,4-c]pyridine-3-carboxamide], the IC50 amounted to 121 nM. For the molecule `Cn1nc(C(=O)NCc2ccc(C#N)cc2)c2c1C(=O)N(CC1(S(=O)(=O)N3CCC(O)CC3)CC1)CC2` [Example 125, N-(4-Cyanobenzyl)-6-((1-((4-hydroxypiperidin-1-yl)sulfonyl)cyclopropyl)methyl)-1-methyl-7-oxo-4,5,6,7-tetrahydro-1H-pyrazolo[3,4-c]pyridine-3-carboxamide], the IC50 came to 136 nM. As for `Cn1nc(C(=O)NCc2ccc(C#N)cc2)c2c1C(=O)N(CC1(S(=O)(=O)N3CC[C@@H](O)C3)CC1)CC2` [Example 126, (R)-N-(4-Cyanobenzyl)-6-((1-((3-hydroxypyrrolidin-1-yl)sulfonyl)cyclopropyl)methyl)-1-methyl-7-oxo-4,5,6,7-tetrahydro-1H-pyrazolo[3,4-c]pyridine-3-carboxamide], the IC50 was 84 nM. In the case of `Cn1nc(C(=O)NCc2ccc(C#N)cc2)c2c1C(=O)N(CC1(S(=O)(=O)N3CC[C@H](O)C3)CC1)CC2` [Example 127, (S)-N-(4-Cyanobenzyl)-6-((1-((3-hydroxypyrrolidin-1-yl)sulfonyl)cyclopropyl)methyl)-1-methyl-7-oxo-4,5,6,7-tetrahydro-1H-pyrazolo[3,4-c]pyridine-3-carboxamide], the IC50 turned out to be 67 nM. Regarding `Cn1nc(C(=O)NCc2ccc(C#N)cc2)c2c1C(=O)N(CC1(S(=O)(=O)NC3CC3)CC1)CC2` [Example 129, N-(4-cyanobenzyl)-6-((1-(N-cyclopropylsulfamoyl)cyclopropyl)methyl)-1-methyl-7-oxo-4,5,6,7-tetrahydro-1H-pyrazolo[3,4-c]pyridine-3-carboxamide], the concentration for half-maximal inhibition (IC50) stood at 213 nM.

Turning to `Cn1nc(C(=O)NCc2ccc(C#N)cc2)c2c1C(=O)N(CC1(S(=O)(=O)NC3COC3)CC1)CC2` [Example 132, N-(4-Cyanobenzyl)-1-methyl-6-((1-(N-(oxetan-3-yl)sulfamoyl)cyclopropyl)methyl)-7-oxo-4,5,6,7-tetrahydro-1H-pyrazolo[3,4-c]pyridine-3-carboxamide], the IC50 was found to be 451 nM. With `Cn1nc(C(=O)NCc2ccc(C#N)cc2)c2c1C(=O)N(CC1(S(=O)(=O)N3CCNCC3)CC1)CC2` [Example 133, N-(4-Cyanobenzyl)-1-methyl-7-oxo-6-((1-(piperazin-1-ylsulfonyl)cyclopropyl)methyl)-4,5,6,7-tetrahydro-1H-pyrazolo[3,4-c]pyridine-3-carboxamide], the IC50 worked out at 258 nM. Consider `Cn1nc(C(=O)NCc2ccc(C#N)cc2)c2c1C(=O)N(CC1(S(=O)(=O)NCCCN)CC1)CC2` [Example 134, 6-((1-(N-(3-Aminopropyl)sulfamoyl)cyclopropyl)methyl)-N-(4-cyanobenzyl)-1-methyl-7-oxo-4,5,6,7-tetrahydro-1H-pyrazolo[3,4-c]pyridine-3-carboxamide], for which the IC50 was determined as 282 nM.

With `Cn1nc(C(=O)NCc2ccc(C#N)cc2)c2c1C(=O)N(CC1(S(=O)(=O)NCCN)CC1)CC2` [Example 135, 6-((1-(N-(2-Aminoethyl)sulfamoyl)cyclopropyl)methyl)-N-(4-cyanobenzyl)-1-methyl-7-oxo-4,5,6,7-tetrahydro-1H-pyrazolo[3,4-c]pyridine-3-carboxamide], the IC50 was 1090 nM. Turning to `CN1CCN(S(=O)(=O)C2(CN3CCc4c(C(=O)NCc5ccc(C#N)cc5)nn(C)c4C3=O)CC2)CC1` [Example 136, N-(4-Cyanobenzyl)-1-methyl-6-((1-((4-methylpiperazin-1-yl)sulfonyl)cyclopropyl)methyl)-7-oxo-4,5,6,7-tetrahydro-1H-pyrazolo[3,4-c]pyridine-3-carboxamide], the IC50 was determined as 243 nM. Regarding `Cn1nc(C(=O)NCc2ccc(C#N)cc2)c2c1C(=O)N(CC1(S(=O)(=O)NC3CCNCC3)CC1)CC2` [Example 137, N-(4-Cyanobenzyl)-1-methyl-7-oxo-6-((1-(N-(piperidin-4-yl)sulfamoyl)cyclopropyl)methyl)-4,5,6,7-tetrahydro-1H-pyrazolo[3,4-c]pyridine-3-carboxamide], the IC50 is 691 nM.

In the case of `Cn1nc(C(=O)NCc2ccc(C#N)cc2)c2c1C(=O)N(CC1(S(=O)(=O)N3CCC(N)CC3)CC1)CC2` [Example 138, 6-((1-((4-Aminopiperidin-1-yl)sulfonyl)cyclopropyl)methyl)-N-(4-cyanobenzyl)-1-methyl-7-oxo-4,5,6,7-tetrahydro-1H-pyrazolo[3,4-c]pyridine-3-carboxamide], the concentration for half-maximal inhibition (IC50) worked out at 326 nM.

Turning to `Cn1nc(C(=O)NCc2ccc(C#N)cc2)c2c1C(=O)N(CC1(S(=O)(=O)N3C[C@@H](N)[C@H](O)C3)CC1)CC2` [Example 139, 6-((1-(((3R,4R)-3-Amino-4-hydroxypyrrolidin-1-yl)sulfonyl)cyclopropyl)methyl)-N-(4-cyanobenzyl)-1-methyl-7-oxo-4,5,6,7-tetrahydro-1H-pyrazolo[3,4-c]pyridine-3-carboxamide], the IC50 was determined as 143 nM.

For `Cn1nc(C(=O)NCc2ccc(C#N)cc2)c2c1C(=O)N(CC1(S(=O)(=O)N3C[C@H](N)[C@@H](O)C3)CC1)CC2` [Example 140, 6-((1-(((3S,4S)-3-Amino-4-hydroxypyrrolidin-1-yl)sulfonyl)cyclopropyl)methyl)-N-(4-cyanobenzyl)-1-methyl-7-oxo-4,5,6,7-tetrahydro-1H-pyrazolo[3,4-c]pyridine-3-carboxamide], the IC50 was found to be 147 nM. As to `Cn1nc(C(=O)NCc2ccc(C#N)cc2)c2c1C(=O)N(CC1(S(=O)(=O)N3CC[C@@H](N)C3)CC1)CC2` [Example 141, (R)-6-((1-((3-Aminopyrrolidin-1-yl)sulfonyl)cyclopropyl)methyl)-N-(4-cyanobenzyl)-1-methyl-7-oxo-4,5,6,7-tetrahydro-1H-pyrazolo[3,4-c]pyridine-3-carboxamide], the half-maximal inhibitory concentration (IC50) was found to be 192 nM. As to `Cn1nc(C(=O)NCc2ccc(C#N)cc2)c2c1C(=O)N(CC1(S(=O)(=O)N3CC[C@H](N)C3)CC1)CC2` [Example 142, (S)-6-((1-((3-Aminopyrrolidin-1-yl)sulfonyl)cyclopropyl)methyl)-N-(4-cyanobenzyl)-1-methyl-7-oxo-4,5,6,7-tetrahydro-1H-pyrazolo[3,4-c]pyridine-3-carboxamide], the half-inhibitory concentration (IC50) was 268 nM.

The values are drawn from patent US20250353820A1, “ANTIVIRAL PYRAZOLOPYRIDINONE COMPOUNDS” (Novartis AG, priority 2019, published 2025).
